According to patent US20150297718A1, “ION[…] OF CATIONIC PRODRUGS FOR TOPICAL TREATMENT OF MUSCU[…] SKIN DISEASES” (priority 2014, published 2015):
Where two headings read alike, the source gives them in different places. Values belong to the molecule of their own block, whether it stands above or below them.

Tests used:
[1] = In vivo rat study of iontophoresis delivery on dorsal back skin: tissue and plasma drug concentrations; settings: for Drug concentration in the skin: delivered drug (prodrug or ketoprofen); for Concentration of ketoprofen converted from the prodrug in the skin: number in bracket
Description: (§1) The anode iontophoresis of ketoprofen cationic prodrugs KCE, KME and cathode iontophoresis of ketoprofen were compared with an in vivo rat study for evaluation of drug penetration into deep tissues. […] A prodrug solution was loaded in the cell. A constant current of 0.4 mA/cm^2 for iontophoresis was applied for 6 hours. At the end of the iontophoresis delivery, the rats were euthanized. The skin of the application site (under the glass cell) was washed with water, tape stripped once to remove residue drug on skin, and then dissected with a biopsy punch for the tissue layers: epidermis and dermis layer (depth 0-3 mm), subcutaneous tissue (fat pad) (3-4 mm), shallow muscle layer (4-6 mm), and deep muscle (6-10 mm). The tissues from the contralateral site were dissected with the same method. In addition, the plasma blood samples were obtained right before the experiment (time 0) and each hour during the experiment. The drug concentrations in the tissue and plasma samples were analyzed with a HPLC.
as §1, with “cationic prodrugs and cathode” for “cationic prodrugs KCE, KME and cathode”, “ketoprofen were also compared with” for “ketoprofen were compared with”, “rat study at 0.4 mA/cm^2 for a shorter duration of 2 hours for evaluation” for “rat study for evaluation”, “applied for 2 hours. At” for “applied for 6 hours. At”
as §1, with “cationic prodrugs and cathode” for “cationic prodrugs KCE, KME and cathode”, “ketoprofen were also compared with” for “ketoprofen were compared with”, “rat study at 0.057 mA/cm^2 for a duration of 6 hours for evaluation” for “rat study for evaluation”, “current of 0.057 mA/cm^2 for” for “current of 0.4 mA/cm^2 for”, “with a HPLC” for “with a HPLC.”
KPE is a prodrug of ketoprofen but with two methyl groups on the nitrogen atom, instead of three methyl groups on the nitrogen atom like KCE and KME. KPE can be presented as a hydrochloride salt. […] Anode iontophoresis delivery of KPE in this aqueous solution at 0.4 mA/cm^2 for a shorter duration of 2 hour was also conducted with the in vivo rat study.

[2] = system: melanoma cell (A375); assay: In vitro cell viability assay on melanoma cell growth; type: cell-based; settings: read-out: 50% inhibition concentration (IC50) on melanoma cell (A375) growth
Source text: The drug concentrations in the skin after the iontophoresis delivery of those prodrugs or their parent drug ketoprofen from different iontophoresis conditions are summarized in Table 2. The high drug concentration in the skin can be used for treatment of skin diseases including skin cancers such as melanoma. […] The ketoprofen concentrations in the skin from the iontophoresis delivery was not higher than its IC50 against the melanoma cell growth, but the KCE and KME concentrations in the skin from the anode iontophoresis delivery were higher than their IC50 against the melanoma cell growth. Thus, the anode iontophoresis of the prodrugs can provide high drug accumulation in the skin, and such high drug accumulation in the skin can be used for skin disease treatment.

[3] = Iontophoresis delivery into hairless rat knee joint: tissue and plasma drug concentrations; type: in vivo; settings: 0.4 mA/cm^2 for 20 min on knee
Description: Hairless rats were anaesthetized with isoflurane. A rubber disk shape applicator with a sponge that can hold 0.5 ml of the drug solution was used and a button Ag/AgCl electrode was used as current driving electrode. The delivery area is about 1.2 cm^2. After drug solution was loaded into the sponge, the applicator was placed on the knee cap skin and applied an electric current at 0.4 mA/cm^2 for 20 min. A return electrode was attached to the upper tail of the rat. After that, the skin was cleaned thoroughly with wet Kim wipes. The tissues (skin, muscle and joint) at the application site knee and also the contralateral site knee were collected at 30 min, 2 hr, 4 hr or 6 hr from the start of iontophoresis delivery. Three animals were used for each time point. Blood samples were also collected at appropriate time points. The tissue and blood samples were stored at −80° C. until further processing.

[4] = system: knee arthritis pain model (monosodium iodoacetate); assay: MIA knee osteoarthritis rat model treated with iontophoresis; type: in vivo; settings: 0.4 mA/cm^2 for 20 min on days 1, 2, 3 after MIA; versus iontophoresis of NaCl
Description: A knee arthritis pain model was established by injection of 50 μl of 60 mg/ml monosodium iodoacetate (MIA) into the left hind knee joint of 12 hairless rats, and they were divided into three groups. The knee diameters of both hind knees were measured. The difference in knee diameters between the left knee and right knee was used as the indicator of the swelling (or inflammation) of the left knee. In addition, the weight bearing of each hind limb was also measured with a Linton incapacitance tester. The percentage of the weight bearing by the left leg was used as an indicator of the pain level in the knee. At 1 day, 2 days, 3 days after the injection of MIA, the left knee of the rats in group 1 was treated with iontophoresis of NaCl to the left hind knee at 0.4 mA/cm^2 for 20 min, group 2 treated with iontophoresis of Kt to the left hind knee at 0.4 mA/cm^2 for 20 min, and group 3 treated with iontophoresis of KCE to the left hind knee at 0.4 mA/cm^2 for 20 min. The knee diameter and weight bearing were measured at day 0 before the MIA injection, and also at day 1, 2, and 3 after the MIA injection but before the iontophoresis treatment. They were also measured at day 4, 6, and 10 after the MIA injection.

[5] = In-vitro side-by-side diffusion cell study, iontophoresis across human epidermis skin; type: in vitro ADME; settings: KCE 26.6 μmol/ml, PE 4.9 μmol/ml, 0.2 mA
Source text: The efficiency in anode iontophoresis delivery of KCE and that in cathode iontophoresis delivery of ketoprofen were compared with an in-vitro side-by-side diffusion cell study. […] The human cadaver epidermis skin was sandwiched between the two half cells with stratum corneum face the donor chamber. For anode iontophoresis of KCE, KCE chloride salt solution (26.6 μmol/ml) was placed in the donor cell. For cathode iontophoresis of ketoprofen (Kt), […] solution (26.6 μmol/ml) was placed in the donor cell. Phosphate buffer solution (0.15 M at pH 7.4) was placed in the receiver chamber. Constant current 0.2 mA was applied to the diffusion cell. The amount of drug penetrated through the skin was collected in the receive chamber and analyzed with a HPLC. The anode iontophoresis of the cationic prodrug KCE delivered 4 times more drug across the skin than that delivered by the cathode iontophoresis of ketoprofen (see FIG. 4A) from the in-vitro study.
Anode iontophoresis of the cationic ketoprofen prodrug KCE (26.6 μmol/ml) with the presence of phenylephrine (PE) (4.9 μmol/ml) in solution was evaluated with an in-vitro diffusion cell study across a human epidermis skin.

[6] = iontophoresis 0.057 mA/cm^2 for 6 hrs
[7] = iontophoresis 0.4 mA/cm^2 for 2 hrs
[8] = iontophoresis 0.4 mA/cm^2 for 6 hrs

SMILES: CC(C[N+](C)(C)C)OC(=O)C(C)c1cccc(C(=O)c2ccccc2)c1.[Cl-] (stereo not drawn) [KME, Ketoprofen β-methylcholine ester chloride salt]
Plasma and contralateral tissue drug concentration ([1]; 0.057 mA/cm^2 for 6 hours): we can detect the parent drug Kt in the plasma and also in the contralateral tissue | Tissue drug concentrations / direct penetration at the application site ([1]; 0.057 mA/cm^2 for 6 hours): direct penetration into deep tissues that is up into the deep muscles | Drug in tissues at the contralateral site ([1]; 0.4 mA/cm^2 for 2 hours): no ketoprofen or KME was detected in the tissues at the contralateral site | Plasma drug concentration ([1]; 0.4 mA/cm^2 for 2 hours): no ketoprofen or KME in rat plasma was detected | Tissue drug concentrations / direct penetration at the application site ([1]; 0.4 mA/cm^2 for 2 hours): direct penetration into deep tissues and prodrug retaining in the tissues of the application site | Drug in tissues at the contralateral site ([1]; 0.4 mA/cm^2 for 6 hours): No prodrug or Kt was detected in the contralateral tissues | Plasma drug concentration ([1]; 0.4 mA/cm^2 for 6 hours): No prodrug or Kt was detected in the plasma | Tissue drug concentrations / direct penetration at the application site ([1]; 0.4 mA/cm^2 for 6 hours): High prodrug KME concentrations in the tissues of the drug application | Drug concentration in the skin [1, 6]: 3725 μmol per kilogram of skin | Concentration of ketoprofen converted from the prodrug in the skin [1, 6]: 73 μmol per kilogram of skin | Drug concentration in the skin [1, 7]: 6128 μmol per kilogram of skin | Concentration of ketoprofen converted from the prodrug in the skin [1, 7]: 35 μmol per kilogram of skin | Drug concentration in the skin [1, 8]: 34768 μmol per kilogram of skin | Concentration of ketoprofen converted from the prodrug in the skin [1, 8]: 449 μmol per kilogram of skin | IC50 ([2]; A375 cells): 1550 µM

Plasma drug concentration ([1]; 0.4 mA/cm^2 for 2 hours): lower than that from iontophoresis of Kt | Drug concentration in the skin [1, 7]: 1883 μmol per kilogram of skin | Concentration of ketoprofen converted from the prodrug in the skin [1, 7]: 736 μmol per kilogram of skin
SMILES: CC(C(=O)OCCCN(C)C)c1cccc(C(=O)c2ccccc2)c1.Cl (stereo not shown) [KPE]
Tissue drug concentrations / direct penetration at the application site ([1]; 0.4 mA/cm^2 for 2 hours): Higher drug concentrations in the tissues at the drug application site than those from the contralateral site

SMILES: CC(C(=O)O)c1cccc(C(=O)c2ccccc2)c1 (stereo not shown) [Ketoprofen, reference compound]
Tissue drug concentrations / direct penetration at the application site ([1]; 0.057 mA/cm^2 for 6 hours): only achieved skin deep penetration with no direct penetration into subcutaneous, shallow muscle or deep muscle tissue | Tissue drug concentrations / direct penetration at the application site ([1]; 0.4 mA/cm^2 for 2 hours): only achieved skin deep penetration with no direct penetration into subcutaneous, shallow muscle or deep muscle tissue | Plasma drug concentration ([1]; 0.4 mA/cm^2 for 6 hours): high | Tissue drug concentrations / direct penetration at the application site ([1]; 0.4 mA/cm^2 for 6 hours): can only penetrate skin deep | Drug concentration in the skin [1, 6]: 59 μmol per kilogram of skin | Drug concentration in the skin [1, 7]: 378 μmol per kilogram of skin | Drug concentration in the skin [1, 8]: 417 μmol per kilogram of skin | IC50 ([2]; Homo sapiens, A-375, A375 cells): 1400 µM | Plasma Kt concentration [3]: high initial plasma Kt concentration than iontophoresis of the cationic prodrug KCE | Knee swelling (knee diameter difference left vs right) [4]: not as effective | Weight bearing of the left leg (pain indicator) [4]: not as effective

SMILES: CNC[C@H](O)c1cccc(O)c1 [PE, phenylephrine, reference compound]
Amount penetrated across the skin by anode iontophoresis, KCE alone versus KCE with phenylephrine [5]: Significant amount of PE was also delivered across the skin
